Patent US20240262791A1, “B[…] […] AMINO ACIDS” (priority 2021, published 2024)

Columns and labels:
[1] = healthy volunteers in phase I trial, patients in phase II trial; cited from earlier work
[2] = test system: HeLa-EGFP (182TAG) reporter cells; assay: Genetic incorporation of mFSY in HeLa-EGFP (182TAG) reporter cells; assay type: cell-based; details: no mFSY added or 1 mM mFSY added
From the text: FIGS. 12A-12C: Genetic incorporation of mFSY into proteins in mammalian cells. FIG. 12A: FACS analysis of mFSY incorporation into HeLa-EGFP (182TAG) cells. Negative control cells were either not transfected with any plasmid or were not treated with mFSY. FACS data is representative of three biological replicates. FIG. 12B: Bar graph showing total EGFP fluorescence percentage from FACS data. Error bar: s.d., n=3. FIG. 12C: Fluorescence microscopy and brightfield images of HeLa-EGFP (182TAG) reporter cells under two conditions: no mFSY added or 1 mM mFSY added.

[3] = test system: Afb7X; assay: Afb7X and MBP-Z(24F-FSY) cross-linking; assay type: biochemical; details: MBP-Z(24F-FSY) with Afb7X, PBS pH 7.4, 37° C., 12 h
Protocol: We also introduced F-FSY into the maltose binding protein (MBP) fused Z protein at position 24 (MBP-Z(24F-FSY)). The purified MBP-Z(24F-FSY) was analyzed by electrospray ionization time-of-flight mass spectrometry (ESI-TOF MS). A peak observed at 50829 Da corresponds to intact MBP-Z containing F-FSY at site 24 (data not shown). We then tested the reactivities of F-FSY towards amino acid residue using the binding complex of MBP-Z and the Zspa affibody (Afb). Upon Afb-Z binding, F-FSY would be place in close proximity with the residue at position 7 of Afb (Afb7X) and would form a covalent bond with the targeting residue, causing protein-protein cross-linking.
0.5 mg/ml Afb7X and 1 mg/ml MBP-Z(24F-FSY) were incubated in PBS (pH 7.4) at 37° C. for 12 h, after which 1 j.tL reaction solution was extracted and mixed with 10 j.tL Laemmli loading buffer. The mixture was heated to 95° C. for 10 min and then loaded for SDS-PAGE, after which the gel was stained with Coomassie blue and imaged with ChemiDoc™ MP imaging system (Bio-rad).

[4] = target: T1, WT Spike RBD (Severe acute respiratory syndrome coronavirus 2, UniProt P0DTC2); assay type: biochemical, SARS-CoV-2
T1 construct: SARS-CoV-2 spike protein, RBD, 6His tag (S protein) was purchased from ACRObiosystems (#SRD-C52H3); purchased ACRObiosystems #SRD-C52H3

[5] = SFY crosslinking of protein residues and RNA in cells; assay type: cell-based; details: E. coli and HEK293T cells
Protocol: FIG. 4B: Fluorescence confocal images HEK293 cells expressing EGFP(40TAG) gene and the Mm-tRNA^Pyl/MmSFYRS with and without 1 mM SFY. FIG. 4C: Flow cytometric analysis of SFY incorporation into EGFP(40TAG) in HEK293 cells using Ma-tRNA^Pyl/MaSFYRS. […] FIGS. 4E-4F: Analysis of crosslinking of Afb(24SFY) with MBP-Z(7X) in E. coli cells. Western blot of E. coli cell lysate (FIG. 4E); SDS-PAGE of proteins His-tag purified from E. coli (FIG. 4F). Maltose binding protein (MBP) was fused to the N-terminus of Z protein to better separate Z from Afb in size. […] FIG. 4H: Western blot analysis of lysate of HEK293T cells expressing GST(103SFY-107X). X is the target residue indicated. FIG. 4I: Western blot analysis E. coli cells expressing Hfq with SFY incorporated at site 25 or 49. Cell lysate samples were treated with or without RNase before loading, and an anti-His antibody was used to detect the 6×His tag appended at the C-terminus of expressed Hfq.

[6] = test system: GST; assay: Cross-linking of GST-103SFY-107X in live mammalian cells; assay type: cell-based; details: SFY at site 103 of GST, residue 107 varied, HEK293T cells
Protocol: […] of pcDNA-GST-103TAG-107X (X=A, H, Y or K)^3 and […] of pNEU-MmSFYRS-4xU6M15 were co-transfected into target cells using 5 μL of lipofectamine 2000 following the manufacturer's instructions. Six hours post transfection, the media were replaced with complete DMEM media with or without 1 mM SFY. The cells were incubated at 37° C. for additional 48 h, collected, and applied for immunoblot analysis.

[7] = test system: nucleoside monophosphates (NMPs: AMP, UMP, CMP, or GMP); assay: In vitro incubations of NMPs and SFY; details: 50 mM SFY, 50 mM NMP, 37° C.
Protocol: In addition, to check if SFY could cross-link all four nucleotides, we incubated 50 mM SFY with 50 mM different nucleoside monophosphates (NMPs: AMP, UMP, CMP, or GMP) at 37° C. for 16 hours.
50 mM SFY (HCl salt) and 50 mM NMP was incubated in DI H2O. 50 mM NaOH was added to neutralize the HCl salt. The mixture was incubated at 37° C. for 48 h. Then the reaction mixture was diluted for 50 times in H2O/acetonitrile (50/50, v/v, with 0.1% trifluoracetic acid) and subjected to mass spectrum analysis using positive mode. Mass spectrum analysis was performed on SCIEX MDS, 3200 Q TRAP system.

[8] = test system: HEK293T cells; assay type: cell-based; details: 0 to 1 mM SFY, 24-48 h
Protocol: 2×10^4 cells/well of HEK293T cells were seeded in a 96-well plate. On the next day, the media were replaced with fresh DMEM media supplemented with 0, 0.0625, 0.125, 0.25, 0.5, or 1 mM of SFY. The SFY-treated and control cells were cultured for an additional 24-48 h at 37° C. and then analyzed with CellTiter-Blue® Cell Viability Assay following the manufacturer's instructions.

In the case of rhACE2, the safety and tolerability [1] is listed as “safe and well tolerated”.

With `NC(Cc1cccc(OS(=O)(=O)F)c1)C(=O)O` [mFSY, meta-fluorosulfate-L-tyrosine] the “EGFP fluorescence (mFSY incorporation)” value [2] was “Fluorescence is only seen after the addition of mFSY”.

For `NC(Cc1ccc(OS(=O)(=O)F)c(F)c1)C(=O)O` (centres unmarked) [FFY], the “residues forming a covalent bond with F-FSY” value [3] was “form a covalent bond with Lys, His and Tyr” and the “PERx reaction rate over FSY in the mNB6 system” value [4] was 240%.

For `COc1ccc(CC(N)C(=O)O)cc1S(=O)(=O)F` (centres unmarked) [SFY, o-sulfonyl fluoride-O-methyltyrosine], the “crosslinking capability of SFY” value [5] was “allows crosslinking of His, Tyr, Lys residues in protein and of RNA in cells”, the “residues reacting with SFY placed in proximity” value [6] was “react with His, Tyr, and Lys” and the “cross-linking adducts with NMPs detected by MS” value [7] was “Cross-linking adducts of SFY with all four NMPs were detected”. For the same compound, the “toxicity to HEK293T cells” value [8] was “did not observe obvious toxicity”.
